biological target: T1, purified 11β-HSD1 (recombinant, expressed in E. coli) (Homo sapiens, UniProt P28845); experiment: Inhibition of purified 11β-HSD1, Scintillation Proximity Assay; type: biochemical; details: recombinant enzyme, 3H cortisone, NADPH, room temperature
T1 construct: made in house; host or cells: E. coli
Protocol: (§1) The inhibition of purified 11β-HSD1 by compounds of Formula I was measured as follows using a Scintillation Proximity Assay. All reactions were carried out at room temperature in 96 well flexible Microbeta reaction plates. The assay begins by adding 1 microliter of a 0.1 mM solution of a compound of Formula I in DMSO previously diluted in half-log increments (8 points) starting at 1 micromolar final concentration. To this dot was added 50 microliters of substrate solution (50 mM HEPES, pH 7.4, 100 mM KCl, 5 mM NaCl, 2 mM MgCl2 containing […] of ^3H cortisone, 1 mM NADPH). After a 10 minute incubation, 50 microliters of enzyme solution containing 20 nM recombinant 11β-HSD1 (expressed in E. coli, and affinity purified) was added, The reaction was incubated for 90 minutes, and stopped by adding 50 microliters of SPA bead mix (18-β-glycyrrhetinic acid, 10 micromolar final, 5 mg/ml protein A coated YSi SPA beads, and 1-microgram/ml alpha-cortisol antibody (East Coast Biologics). The plate shaken for 120 minutes, and the radioactivity corresponding to ^3H cortisol was measured on a Wallac Microbeta.

T1 sequence (P28845 whole entry): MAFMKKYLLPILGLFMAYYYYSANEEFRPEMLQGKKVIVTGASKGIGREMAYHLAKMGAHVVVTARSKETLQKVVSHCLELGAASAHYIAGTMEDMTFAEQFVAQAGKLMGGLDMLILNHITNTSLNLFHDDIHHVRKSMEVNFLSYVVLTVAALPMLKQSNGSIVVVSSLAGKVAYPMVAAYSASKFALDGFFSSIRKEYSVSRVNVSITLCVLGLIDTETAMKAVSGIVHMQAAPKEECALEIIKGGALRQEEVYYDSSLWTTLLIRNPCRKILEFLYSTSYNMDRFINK

| IC50 [nM] | SMILES |
| --- | --- |
| < 50 | C[C@@H]1[C@H](c2ccccc2)OC(=O)N1CC12CC3CC(CC(C3)C1)C2 [Example 25, (4R,5S)-3-((1-adamantyl)methyl)-4-methyl-5-phenyloxazolidin-2-one] |
| < 50 | CC(C)(C)[C@H]1CN(C2C3CC4CC(C3)CC2C4)C(=O)N1 (stereo partly drawn) [Example 27, (S)-1-(2-adamantyl)-4-tert-butylimidazolidin-2-one] |

Further lines, the molecule ahead of its results:

| SMILES | IC50 [nM] |
| --- | --- |
| O=C1O[C@@H](c2ccccc2)CN1CC12CC3CC(CC(C3)C1)C2 [Example 1, (S)-3-((1-adamantyl)methyl)-5-phenyloxazolidin-2-one] | < 50 |
| CC(C)C[C@H]1CN(CC23CC4CC(CC(C4)C2)C3)C(=O)O1 [Example 2, (S)-3-((1-adamantyl)methyl)-5-isobutyloxazolidin-2-one] | < 50 |
| CC(C)C[C@H]1CN(C23CC4CC(CC(C4)C2)C3)C(=O)O1 [Example 4, (S)-3-(1-adamantyl)-5-isobutyloxazolidin-2-one] | < 50 |
| CC(C)C[C@H]1CN(C2C3CC4CC(C3)CC2C4)C(=O)O1 (stereo partly drawn) [Example 5, (S)-3-(2-adamantyl)-5-isobutyloxazolidin-2-one] | < 50 |
| O=C1O[C@@H](c2ccccc2Cl)CN1CC12CC3CC(CC(C3)C1)C2 [Example 7, (S)-3-((1-adamantyl)methyl)-5-(2-chlorophenyl)oxazolidin-2-one] | < 50 |
| CC(C)(C)[C@H]1CN(CC23CC4CC(CC(C4)C2)C3)C(=O)O1 [Example 8, (S)-3-((1-adamantyl)methyl)-5-(t-butyl)oxazolidin-2-one] | < 50 |
| C[C@]1(c2ccccc2)CN(C2C3CC4CC(C3)CC2C4)C(=O)O1 (stereo partly drawn) [Example 16, (S)-3-(2-adamantyl)-5-methyl-5-phenyloxazolidin-2-one] | < 50 |
| O=C1O[C@@H](C2CCCCC2)CN1CC12CC3CC(CC(C3)C1)C2 [Example 18, (S)-3-((1-adamantyl)methyl)-5-cyclohexyloxazolidin-2-one] | < 50 |
| O=C1O[C@@H](C2CCCCC2)CN1C1C2CC3CC(C2)CC1C3 (stereo partly drawn) [Example 20, (S)-3-(2-adamantyl)-5-cyclohexyloxazolidin-2-one] | < 50 |
| O=C1O[C@H](C2CCCCC2)CN1C1C2CC3CC(C2)CC1C3 (stereo partly drawn) [Example 21, (R)-3-(2-adamantyl)-5-cyclohexyloxazolidin-2-one] | < 50 |

biological target: microsomal 11β-HSD1 (Homo sapiens, UniProt P28845); experiment: Inhibition of microsomal 11β-HSD1, Scintillation Proximity Assay; type: biochemical; details: microsomal enzyme, same manner as purified enzyme assay
Protocol: as §1
The inhibition of microsomal 11β-HSD1 was carried out in the same manner.

microsomal 11β-HSD1, sequence (P28845 whole entry): as above

| IC50 [nM] | SMILES |
| --- | --- |
| < 50 | O=C1OC(c2ccc(Br)cc2)CN1C1C2CC3CC(C2)CC1C3 (racemic) [Example 29, (±)-5-(4-bromophenyl)-3-(2-adamantyl)oxazolidin-2-one] |
| < 50 | CC(C)(C)C1CCN(C2C3CC4CC(C3)CC2C4)C(=O)N1 (racemic) [Example 31, (±)-4-tert-butyl-1-(2-adamantyl)tetrahydropyrimidin-2(1H)-one] |
| < 50 | O=C1OC(c2cccc(Br)c2)CN1C1C2CC3CC(C2)CC1C3 (racemic) [Example 34, (±)-5-(3-bromophenyl)-3-(2-adamantyl)oxazolidin-2-one] |
| < 50 | CC(C)CC1(CO)CN(C2C3CC4CC(C3)CC2C4)C(=O)N1 (racemic) [Example 35, (±)-1-(2-adamantyl)-4-(hydroxymethyl)-4-isobutylimidazolidin-2-one] |
| 50 to 1000 | CC(C)CC1(CO)CN(CC23CC4CC(CC(C4)C2)C3)C(=O)N1 (racemic) [Example 36, (±)-1-(1-adamantylmethyl)-4-(hydroxymethyl)-4-isobutylimidazolidin-2-one] |
| < 50 | O=C1OC(c2ccc(-c3ccccc3)cc2)CN1C1C2CC3CC(C2)CC1C3 (racemic) [Example 38, (±)-5-(biphenyl-4-yl)-3-(2-adamantyl)oxazolidin-2-one] |

biological target: T2, 11β-HSD1 in whole cells (omental adipocytes) (Homo sapiens, UniProt P28845); experiment: Inhibition of 11β-HSD1 in whole cells (omental adipocytes), cortisone to cortisol conversion, SPA; type: cell-based; details: 100 nM [3H] cortisone, 37 degrees C
T2 construct: host or cells: omental adipocytes differentiated from preadipocytes
Protocol: The inhibition of 11β-HSD1 by compounds of Formula I in whole cells was measured as follows. Omental adipocytes cultured in 96-well plates were purchased from Zen-Bio, Inc. and used at least two weeks after differentiation from precursor preadipocytes started in medium supplemented with adipogenic and lipogenic hormones (human insulin, dexamethasone, isobutylmethylxanthine and PPAR-gamma agonist). The cells were maintained in full adipocyte medium (DMEM/Ham's F-12 (1:1, v/v), HEPES pH 7.4, fetal bovine serum, penicillin, streptomycin and Amphotericin B, supplied by Zen-Bio, Inc.) at 37 degrees C., 5% CO2 and transferred into serum-free, phenol red free medium for overnight incubation. The assay was performed in a total volume of 200 microliters. The cells were pre-incubated with serum-free, phenol red free medium containing 0.1% (v/v) of DMSO and various concentrations of compounds of Formula I at least 1 h before [^3H] cortisone in ethanol (50 Ci/mmol, ARC, Inc.) was added to achieve final concentration of cortisone of 100 nM. The cells were incubated for 3-4 at 37 degrees Centigrade, 5% CO2. Negative controls were incubated without radioactive substrate and received the same amount of [^3H] cortisone at the end of the incubation. Formation of [^3H] cortisol was monitored by analyzing 25 microliters of each supernatant in scintillation proximity assay (SPA). (Solly, K.; Mundt, S. S.; Zokian, H. J.; Ding, G. J.; Hermanowski-Vosatka, A.; Strulovici, B.; Zheng, W. Assay Drug Dev. Technol. 2005, 3, 377-384),

T2 sequence (P28845 whole entry): as above

| IC50 [nM] | SMILES |
| --- | --- |
| < 50 | CC(C)(C)C1CCN(C2C3CC4CC(C3)CC2C4)C(=O)N1 (racemic) [Example 31, (±)-4-tert-butyl-1-(2-adamantyl)tetrahydropyrimidin-2(1H)-one] |
| < 50 | C[C@@H]1[C@H](c2ccccc2)OC(=O)N1CC12CC3CC(CC(C3)C1)C2 [Example 25, (4R,5S)-3-((1-adamantyl)methyl)-4-methyl-5-phenyloxazolidin-2-one] |
| < 50 | CC(C)(C)[C@H]1CN(C2C3CC4CC(C3)CC2C4)C(=O)N1 (stereo partly drawn) [Example 27, (S)-1-(2-adamantyl)-4-tert-butylimidazolidin-2-one] |

Second part, the molecule before the results:

| SMILES | IC50 [nM] |
| --- | --- |
| O=C1O[C@@H](c2ccccc2)CN1CC12CC3CC(CC(C3)C1)C2 [Example 1, (S)-3-((1-adamantyl)methyl)-5-phenyloxazolidin-2-one] | 50 to 1000 |
| CC(C)C[C@H]1CN(CC23CC4CC(CC(C4)C2)C3)C(=O)O1 [Example 2, (S)-3-((1-adamantyl)methyl)-5-isobutyloxazolidin-2-one] | 50 to 1000 |
| CC(C)C[C@H]1CN(C23CC4CC(CC(C4)C2)C3)C(=O)O1 [Example 4, (S)-3-(1-adamantyl)-5-isobutyloxazolidin-2-one] | < 50 |
| CC(C)C[C@H]1CN(C2C3CC4CC(C3)CC2C4)C(=O)O1 (stereo partly drawn) [Example 5, (S)-3-(2-adamantyl)-5-isobutyloxazolidin-2-one] | < 50 |
| O=C1O[C@@H](c2ccccc2Cl)CN1CC12CC3CC(CC(C3)C1)C2 [Example 7, (S)-3-((1-adamantyl)methyl)-5-(2-chlorophenyl)oxazolidin-2-one] | 50 to 1000 |
| CC(C)(C)[C@H]1CN(CC23CC4CC(CC(C4)C2)C3)C(=O)O1 [Example 8, (S)-3-((1-adamantyl)methyl)-5-(t-butyl)oxazolidin-2-one] | < 50 |
| C[C@]1(c2ccccc2)CN(C2C3CC4CC(C3)CC2C4)C(=O)O1 (stereo partly drawn) [Example 16, (S)-3-(2-adamantyl)-5-methyl-5-phenyloxazolidin-2-one] | < 50 |
| O=C1O[C@@H](C2CCCCC2)CN1CC12CC3CC(CC(C3)C1)C2 [Example 18, (S)-3-((1-adamantyl)methyl)-5-cyclohexyloxazolidin-2-one] | 50 to 1000 |
| O=C1O[C@@H](C2CCCCC2)CN1C1C2CC3CC(C2)CC1C3 (stereo partly drawn) [Example 20, (S)-3-(2-adamantyl)-5-cyclohexyloxazolidin-2-one] | < 50 |
| O=C1O[C@H](C2CCCCC2)CN1C1C2CC3CC(C2)CC1C3 (stereo partly drawn) [Example 21, (R)-3-(2-adamantyl)-5-cyclohexyloxazolidin-2-one] | < 50 |

— patent US8835426B2, “Cyclic urea and carbamate inhibitors of 11β-hydroxysteroid dehydrogenase 1” (Vitae Pharmaceuticals, Inc., priority 2007, dated 2014)
